{
  "source": "patent US20080269332A1",
  "about": "“EYELASH ENHANCEMENT COMPOSITION AND METHOD OF TREATMENT” (LA CANADA VENTRURES, INC., priority 2007, published 2008)",
  "test_system": "eyelash growth",
  "assay": "Randomized double blind clinical trial of eyelash growth, daily topical application to root of upper eyelashes for 4 weeks",
  "assay_type": "in vivo, human",
  "protocol": "These solutions were each applied daily to the roots of the upper right and left eyelashes of the patients in a quantity of approximately 0.0164 ml. Patients applied the eyelash product daily for 4 weeks on the root of the upper eyelashes only since some of the solution used may ultimately be deposited on the lower lash interfering with the studies' parameters. Methods: 34 patients were randomly assigned to one of three different treatment groups based on a standard treatment of the upper right lash and different treatments of the upper left eye lash with varying concentrations of the active product and a placebo. Age range of the patients was 20-56; 33 female, 1 male. Three different treatment Groups were constructed based on RIGHT EYE lash treatment/LEFT EYE lash treatment and defined as Groups A/B, A/D and A/C). All patients used Solution A on the right eye lash which is the “Control Group”, with Solutions B, D, and C used on the left eye lash of these same patients. Group A/B (14 patients) used Solution A on the upper right lash and Solution B on the upper left lash. Group A/D (9 patients) used Solution A on the upper right lash and Solution D on the upper left lash. Group A/C (11 patients) used Solution A on the upper right lash and the placebo, Solution C, on the upper left lash. After four (4) weeks upper RIGHT eyelash measurement were made for all 34 randomized patients. The upper LEFT eyelash measurement were made for the 14 patients using Solution B, for the 9 patients using Solution D and the 11 patients using Solution C (the placebo). Eyelash measurements for both the upper right and left eyelashes were taken in the medial, middle and lateral locations on both upper and lower eyelids using micocalipers and measured to 0.1 mm. The mean of the six measurements were then used to calculate the eyelash length for each eye. Measurements were taken at the initiation of the study to use as standard base. The technicians performing the measurements were blinded to the patient group assignment. A paired two-tailed Student's t-Test was used for statistical analysis. All patients enrolled into the study underwent a standard informed consent procedure.",
  "data": [
    {"smiles": "CCNC(=O)CCC/C=C\\C[C@@H]1[C@@H](/C=C/[C@@H](O)COc2ccccc2)[C@H](O)C[C@@H]1O", "note": "[active agent, (z)-7-((1R,2R,3R,5S)-3,5-dihydroxy-2-((R,E)-3-hydroxy-4-phenoxybut-1-enyl)cyclopentyl)-N-ethylhept-5-enamide]", "values": [
      {"measurement": "increase lash growth relative to placebo (growth with active / growth with placebo ×100)", "setting": "4 weeks of daily use, placebo Solution C growth 0.63 mm", "result": 268.25, "unit": "%"},
      {"measurement": "patients subjectively reporting an increase in the thickness or fullness of their eyelashes", "setting": "9/34 patients, 4 weeks of daily use", "result": 26, "unit": "%"},
      {"measurement": "patients reporting mild or minimal irritation", "setting": "19/34 patients, typically resolved after several days of use", "result": 56, "unit": "%"},
      {"measurement": "patients reporting moderate irritation and discontinuing", "setting": "34 patients, daily topical use", "result": "One patient reported moderate irritation and discontinued the product"}
    ]}
  ]
}
